Results on ten compounds are retold here after patent publication US20110065734A1, “NOVEL BIFUNCTIONAL COMPOUNDS WHICH INHIBIT PROTEIN KINASES AND HISTONE DEACETYLASES” (4SC AG, priority 2007, published 2011).

In data set [1] the test system is HeLa cervical carcinoma cell line. In words: Cellular cytotoxicity assay (Alamar Blue), HeLa. The note with it: Homo sapiens, 72 h. The class given is cell-based. As for the experimental part: (§1) The anti-proliferative activity of the chimeric HDAC and protein kinase inhibitory chimeric compounds of the present invention was evaluated using HeLa cervical carcinoma, A549 NSCLC, SKOV3 ovarian carcinoma, Cal27 head and neck cancer, K562 chronic myeloid leukemia (CML) and EOL1 acute hypereosinophilic myeloid leukemia, cell lines. For quantification of cellular proliferation/living cells the Alamar Blue (Resazurin) cell viability assay was applied (O'Brien et al. Eur Biochem. 267, 5421-5426, 2000). In this assay Resazurin is reduced to the fluorescent resorufin by cellular dehydrogenase activity, correlating with viable, proliferating cells. The examples were dissolved as 20 mM solutions in dimethylsulfoxide (DMSO) and subsequently diluted in semi-logarithmic steps. Cell lines were seeded at respective density into 96 well flat bottom plates in a volume of 200 μl per well. 24 h after seeding 1 μl each of the compound dilutions were added into each well of the 96 well plate. Each compound dilution was tested as quadruplicates. Wells containing untreated control cells were filled with […] DMEM medium containing 0.5% v:v DMSO. The cells were then incubated with the substances for 72 h at 37° C. in a humidified atmosphere containing 5% carbon dioxide. To determine the viability of the cells, 20 μl of an Resazurin solution (Sigma; 90 mg/l) were added. After 4 h incubation at 37° C. the fluorescence was measured at an extinction of 544 nm and an emission of 590 nm. For the calculation of the cell viability the emission value from untreated cells was set as 100% viability and the emission rates of treated cells were set in relation to the values of untreated cells. Viabilities were expressed as % values. The corresponding IC50 values of the compounds for cytotoxic activity are determined from the concentration-effect curves by means of non-linear regression.

Data set [2] deals with Cal27 head and neck cancer cell line. Kind of data set: Cellular cytotoxicity assay (Alamar Blue), Cal27. The class given is cell-based. The settings on record: Homo sapiens. Here is the method: as §1
A further data set relates to A549 NSCLC cell line. In words: Cellular cytotoxicity assay (Alamar Blue), A549. It is filed as cell-based. The note with it: Homo sapiens. As for the experimental part:
as §1

Data set [3] relates to SKOV3 ovarian carcinoma cell line. In words: Cellular cytotoxicity assay (Alamar Blue), SKOV3. The class given is cell-based. The settings on record: Homo sapiens. As for the experimental part: as §1
A further data set deals with T1, PDGFRβ (Homo sapiens, UniProt P09619).
T1 construct: purchased ProQinase, Freiburg/Germany
In words: Biochemical flash-plate based kinase assay, PDGFRβ. The note with it: only a range over the listed compounds is given; read-out: PDGFRβ inhibition IC50. An excerpt:
Active kinase proteins were either obtained from commercial suppliers (Abl, PDGF-Rβ ProQinase, Freiburg/Germany; AblT^315I: Millipore/Upstate, Billerica/USA; PKA: InvitroGen/Panvera, Carlsbad/USA) or prepared in-house (KDR, c-terminal kinase domain AA790-1356, HER2 c-terminal kinase domain, EGFR/HER1 C-terminal kinase domain). As substrates, poly-AGKY for Abl, AblT^315I and PDGF-Rβ (#P-1152 Sigma, Munich/Germany), poly-GluTyr for KDR, HER2 and EGFR/HER1 (#P-0275, Sigma, Munich/Germany) or a PKA substrate peptide for PKA (#12-394, Millipore/Upstate, Billerica/USA) were used. Into each well of a 96-well flashplate (#SMP-200 in the case of Abl, Abl T^315I, PDGF-Rβ, EGFR, HER2 and KDR, #SMP-103 in the case of PKA; Perkin Elmer, Waltham/USA) kinase protein was diluted into kinase assay buffer (50 mM HEPES pH 7.5, 3 mM MgCl2, 3 mM MnCl2, 1 mM DTT, 3 μM sodium orthovanadate, 5 μg/ml PEG 8000) containing the appropriate substrate (final volume 89 μl). DMSO vehicle or compounds are added as 1 μl/well prior to the initiation of the kinase reaction by 10 μl 1 mM [^33P]-γATP (4×10^5 cpm). Reactions were allowed to proceed for a time predetermined to be linear on a time versus phosphorylation plot (30 min for PKA, otherwise 80 min) and terminated with the addition of an equal volume of phosphoric acid (2% H3PO4 for 5 minutes). Plates were washed three times with 0.9% w/v NaCl and quantitated by liquid scintillation counting.

Data set [4] has as its system histone H3 hyperacetylation in HeLa cervical carcinoma cells. Kind of data set: Cellular histone H3 hyperacetylation assay. The note with it: Homo sapiens, 24 h, only a range over the listed compounds is given, read-out: Induction of histone H3 hyperacetylation in HeLa cervical carcinoma cells EC50. The class given is cell-based. An excerpt: To assess the cellular efficacy of a histone deacetylase inhibitor in vitro, an assay was set up in black clear-bottom 96-well plates and optimized for use on the Cellomics “ArrayScan II” platform for a quantitative calculation of histone acetylation. The protocol uses a polyclonal rabbit antibody, specifically binding to acetylated lysine 1-20 of human histone H3 on fixed cells with an Alexa Fluor 488 labeled goat anti rabbit-IgG used for counterstaining (Beckers et al. Int J. Cancer 121, 1138, 2007).
5×10^3 HeLa cervical carcinoma cells/well (ATCC. CCL-2) in 200 μl Dulbecco rs modified Eagle's medium (DMEM) containing 10% fetal calf serum are seeded at day 1 in Packard view plates and incubated for 24 h under standard cell culture conditions. On day 2, 1 μl test compound (200× final concentration) is added and incubation continued for further 24 h. On day 3, the culture medium is discarded and attached cells fixed for 15 min at room temperature by addition of 100 μl fixation buffer (3.7% v:v formaldehyde in phosphate buffered saline/PBS). After discarding the fixation buffer and one wash with blocking solution (1% BSA, 0.3% Tween 20 in PBS), cells are permeabilized at room temperature by addition of 100 μl/well permeabilization buffer (30.8 mM NaCl, 0.54 mM Na2HPO4, 0.31 mM KH2PO4, 0.1% v:v Triton X-100) for 15 min at room temperature. After discarding the permeabilization buffer and washing twice with 100 μl/well blocking solution at room temperature, the 1st antibody (anti-K^1-20 histone H3 antibody, Calbiochem No. 382158) in blocking solution (50 μl/well) is added. After incubation for 1 h at room temperature, the wells are washed twice at room temperature with 100 μl/well blocking solution before addition of the 2nd antibody (goat-anti-rabbit Alexa Fluor 488; MoBiTec No. A-11008) in blocking solution (50 μl/well). After further incubation for 1 h at room temperature, wells are washed twice with 100 μl/well blocking solution at room temperature. Finally, 100 μl/well PBS are added and image analysis performed on the Cellomics “ArrayScan II” platform. For EC50 determination, the percentage of positive cells showing nuclear fluorescence is determined and EC50 calculation done from concentration-effect curves by means of non-linear regression. For calibration, a positive (reference HDAC inhibitors like SAHA or NVP LBH-589) and a negative control were included.

Data set [5] has as its target T2, recombinant HDAC1 isolated from HEK293 cells with heterologous HDAC1 expression (Homo sapiens, UniProt Q13547).
T2 construct: made in house
Kind of data set: Fluorimetric rHDAC1 activity assay. The class given is biochemical. The settings on record: only a range of IC50 over the compounds given; read-out: rHDAC1 inhibitory activity IC50.

Data set [6] has as its system EOL1 acute hypereosinophilic myeloid leukemia cell line. Kind of data set: Cellular cytotoxicity assay (Alamar Blue), EOL1. The class given is cell-based. The note with it: Homo sapiens, 72 h, only a range over the listed compounds is given, read-out: Cytotoxicity towards EOL1 cell line IC50. As for the experimental part:
as §1

The subject of data set [7] is K562 chronic myeloid leukemia (CML) cell line. Kind of data set: Cellular cytotoxicity assay (Alamar Blue), K562. It is filed as cell-based. The note with it: Homo sapiens, 72 h, only a range over the listed compounds is given, read-out: Cytotoxicity towards K562 CML cell line IC50. As for the experimental part:
as §1

Setting [8] is: only a range over the listed compounds is given, read-out: Cytotoxicity towards HeLa cervical cell line IC50.
Setting [9] is: CAL-27, 72 h, only a range over the listed compounds is given, read-out: Cytotoxicity towards Cal27 cell line IC50.
Where [10] appears, read: A549, 72 h, only a range over the listed compounds is given, read-out: Cytotoxicity towards A549 NSCLC cell line IC50.
The mark [11] stands for this setting: SK-OV-3, 72 h, only a range over the listed compounds is given, read-out: Cytotoxicity towards SKOV3 cell line IC50.

Structures can show the parent of a compound that is named as a salt. Where two headings read alike, the source gives them in different places.

T2 sequence (Q13547 whole entry): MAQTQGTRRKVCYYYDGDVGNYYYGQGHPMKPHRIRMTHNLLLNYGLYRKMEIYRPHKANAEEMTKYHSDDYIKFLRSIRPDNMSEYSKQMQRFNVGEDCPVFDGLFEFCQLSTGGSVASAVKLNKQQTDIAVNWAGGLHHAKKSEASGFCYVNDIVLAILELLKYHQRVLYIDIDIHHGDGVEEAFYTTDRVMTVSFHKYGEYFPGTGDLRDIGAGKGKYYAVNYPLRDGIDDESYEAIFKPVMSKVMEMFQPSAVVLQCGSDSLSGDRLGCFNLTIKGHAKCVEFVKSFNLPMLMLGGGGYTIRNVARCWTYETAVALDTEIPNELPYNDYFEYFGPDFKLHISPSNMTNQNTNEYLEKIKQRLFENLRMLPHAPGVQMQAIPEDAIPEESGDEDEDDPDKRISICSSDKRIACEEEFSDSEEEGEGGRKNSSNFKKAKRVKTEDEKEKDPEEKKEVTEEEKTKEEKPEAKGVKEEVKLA
T1 sequence (P09619 33-1106): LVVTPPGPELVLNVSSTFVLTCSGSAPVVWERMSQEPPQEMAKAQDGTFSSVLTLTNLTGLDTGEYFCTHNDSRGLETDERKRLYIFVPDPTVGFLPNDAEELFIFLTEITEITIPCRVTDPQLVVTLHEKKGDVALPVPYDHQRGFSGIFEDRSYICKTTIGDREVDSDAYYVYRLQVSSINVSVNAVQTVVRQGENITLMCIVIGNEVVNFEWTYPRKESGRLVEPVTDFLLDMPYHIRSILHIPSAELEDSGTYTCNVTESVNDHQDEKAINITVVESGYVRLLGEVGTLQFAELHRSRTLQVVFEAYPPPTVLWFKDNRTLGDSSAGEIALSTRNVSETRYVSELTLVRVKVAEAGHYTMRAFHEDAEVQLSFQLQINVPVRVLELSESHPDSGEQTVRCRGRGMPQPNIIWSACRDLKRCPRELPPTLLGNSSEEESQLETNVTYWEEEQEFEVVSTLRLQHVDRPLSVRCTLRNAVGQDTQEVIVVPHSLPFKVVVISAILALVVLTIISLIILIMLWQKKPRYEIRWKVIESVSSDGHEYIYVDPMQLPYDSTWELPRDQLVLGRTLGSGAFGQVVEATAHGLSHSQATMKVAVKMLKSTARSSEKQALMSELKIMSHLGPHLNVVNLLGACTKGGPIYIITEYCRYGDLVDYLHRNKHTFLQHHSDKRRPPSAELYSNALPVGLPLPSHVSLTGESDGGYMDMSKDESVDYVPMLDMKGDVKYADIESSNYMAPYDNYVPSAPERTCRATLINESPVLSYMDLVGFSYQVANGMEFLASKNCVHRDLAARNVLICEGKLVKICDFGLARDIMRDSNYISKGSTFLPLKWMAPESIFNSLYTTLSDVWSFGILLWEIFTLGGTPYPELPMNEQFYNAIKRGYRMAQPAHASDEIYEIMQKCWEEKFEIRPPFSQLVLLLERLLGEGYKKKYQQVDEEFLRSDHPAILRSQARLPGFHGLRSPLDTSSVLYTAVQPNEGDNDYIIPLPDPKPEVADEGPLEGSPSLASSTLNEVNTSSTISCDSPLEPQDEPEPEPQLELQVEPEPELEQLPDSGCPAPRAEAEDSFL

Turning to `C#Cc1cccc(Nc2ncnc3ccc(S(=O)(=O)n4ccc(/C=C/C(=O)NO)c4)cc23)c1` [[45], 3-{1-[4-(3-Ethynylphenylamino)quinazoline-6-sulfonyl]-1H-pyrrol-3-yl}-N-hydroxy-acrylamide], the 50% inhibitory concentration (IC50) in [1] (setting [8]) is ≥ 5e-07 M; in [2] (setting [9]), 1.6e-07 to 8e-06 M; with A549 NSCLC cell line (setting [10]) it was ≥ 2.4e-07 M; in data set [3] (setting [11]), ≥ 5.6e-07 M.

Regarding `Cc1ccc(NC(=O)c2ccc(C(=O)NO)cc2)cc1Nc1nc(-c2cccnc2)cs1` [[20], N^1-hydroxy-N^4-(4-methyl-3-(4-(pyridin-3-yl)thiazol-2-ylamino)phenyl)terephthalamide], the melting point was determined as 261 °C. Moreover, the IC50 in data set [1] (setting [8]) was ≥ 1.15e-06 M. The IC50 at PDGFRβ lay within 2100 to 71000 nM. Moreover, the half-maximal effective concentration (EC50) in data set [4] is 1700 to 10000 nM. The IC50 with A549 NSCLC cell line (setting [10]) was ≥ 2.95e-06 M.

As to `Nc1ccccc1NC(=O)/C=C/c1cccc(-c2ccc3ncnc(Nc4ccc(OCc5cccc(F)c5)c(Cl)c4)c3c2)c1` [[11], (E)-N-(2-aminophenyl)-3-(3-(4-(3-chloro-4-(3-fluorobenzyloxy)phenylamino)-quinazolin-6-yl)phenyl)acrylamide], the IC50 in data set [2] (setting [9]) was ≥ 2.8e-07 M; with A549 NSCLC cell line (setting [10]), ≥ 1.1e-06 M; in data set [5], ≥ 35.3 nM.

On to `Cc1ccc(NC(=O)c2ccc(C(=O)Nc3ccccc3N)cc2)cc1Nc1nccc(-c2cccnc2)n1` [[14], N-(2-Amino-phenyl)-N′-[4-methyl-3-(4-pyridin-3-yl-pyrimidin-2-ylamino)-phenyl]-terephthalamide compound with trifluoroacetic acid], for which the 50% inhibitory concentration (IC50) in data set [6] is 3 to 780 nM; in [1] (setting [8]), ≥ 1.15e-06 M; on PDGFRβ, 2100 to 71000 nM.

Consider `Nc1ccccc1NC(=O)c1ccc(C(=O)Nc2cccc(Nc3nc(-c4cccnc4)cs3)c2)cn1` [[24], N^2-(2-aminophenyl)-N^5-(3-(4-(pyridin-3-yl)thiazol-2-ylamino)phenyl)pyridine-2,5-dicarboxamide], for which the melting point is 148 to 150 °C. Also, the IC50 in data set [7] was in the range of 490 to 4070 nM.

As for `CN(C(=O)c1ccc(C(=O)Nc2ccccc2N)cc1)c1ccc(Cl)c(Nc2nccc(-c3cccnc3)n2)c1` [[35], N-(2-Amino-phenyl)-N′-[4-chloro-3-(4-pyridin-3-yl-pyrimidin-2-ylamino)-phenyl]-N′-methyl-terephthalamide], the figures for the IC50 in data set [6], in data set [7] and in data set [5] were 3 to 780 nM, 490 to 4070 nM and 77 to 1400 nM, respectively.

Regarding `Nc1ccccc1NC(=O)c1ccc(C(=O)Nc2cccc(Nc3nc(-c4cccnc4)cs3)c2)cc1` [[18], N^1-(2-aminophenyl)-N^4-(3-(4-(pyridin-3-yl)thiazol-2-ylamino)phenyl)terephthalamide hydrate], the IC50 at PDGFRβ was in the range of 2100 to 71000 nM.

On to `O=C(/C=C/c1ccc(-c2ccc3ncnc(Nc4ccc(OCc5cccc(F)c5)c(Cl)c4)c3c2)cc1)NO` [[8], (E)-3-(4-(4-(3-chloro-4-(3-fluorobenzyl-oxy)phenylamino)quinazolin-6-yl)phen-yl)-N-hydroxyacrylamide hydrochloride monohydrate], for which the concentration for half-maximal inhibition (IC50) in data set [1] (read-out: Cytotoxicity towards HeLa cervical cell line IC50 (M)) was 9.1e-07 to 9.4e-06 M; in data set [2] (CAL-27, 72 h, read-out: Cytotoxicity towards Cal27 cell line IC50 (M)) it was ≥ 2.8e-07 M; in the data set on A549 NSCLC cell line (A549, 72 h, read-out: Cytotoxicity towards A549 NSCLC cell line IC50 (M)) it was ≥ 1.1e-06 M; in [5] it was ≥ 35.3 nM; in data set [3] (SK-OV-3, 72 h, read-out: Cytotoxicity towards SKOV3 cell line IC50 (M)), ≥ 1e-06 M.

For the compound `Nc1ccccc1NC(=O)c1ccc(-c2ccc3ncnc(Nc4ccc(OCc5cccc(F)c5)c(Cl)c4)c3c2)o1` [[5], 5-{4-[3-Chloro-4-(3-fluorobenzyloxy)phenylamino]-quinazolin-6-yl}furan-2-carboxylic acid (2-amino-phenyl)amide], the melting point is 250 °C (dec.). Besides, the EC50 in data set [4] was ≥ 3650 nM. The IC50 in the data set with A549 NSCLC cell line (setting [10]) was ≥ 1.1e-06 M. Besides, the half-maximal inhibitory concentration (IC50) in data set [3] (setting [11]) was ≥ 1e-06 M.

On to `Cc1ccc(NC(=O)c2ccc(C(=O)Nc3ccccc3N)s2)cc1Nc1nccc(-c2cccnc2)n1` [[26], N^2-(2-aminophenyl)-N^5-(4-methyl-3-(4-(pyridin-3-yl)pyrimidin-2-ylamino)phenyl)thiophene-2,5-dicarboxamide], for which the melting point is 280.5 °C. Also, the IC50 in data set [6] lay in the range of 3 to 780 nM. For the same compound, the IC50 in the data set with A549 NSCLC cell line (setting [10]) is ≥ 2.95e-06 M. In data set [7], the half-inhibitory concentration (IC50) was in the range of 490 to 4070 nM.
